Results from patent US20250327046A1, “ROLE OF POLYPHOSPHATES IN NEUROLOGICAL DISORDERS” (UNIVERSITY OF MASSACHUSETTS, priority 2021, published 2025).

System: mutSOD1 mice
Test: Survival of mutSOD1 mice (mouse model of ALS)
Assay type: in vivo
Settings: FIG. 10B, polyP neutralizing cationic polyamine
From the text: Hemizygous transgenic mice carrying mutant human SOD1^G93A (high copy number; B6SJL; Cat. #002726), wild-type human SOD1^WT (B6SJL; Cat. #002297) and TARDBP^A315T (C57BL/6J; Cat. #010700) transgenes were obtained from Jackson Laboratories (Bar Harbor, Maine, USA). Hemizygous transgenic mice (background B6SJLF/J) carrying C9ORF72 hexanucleotide repeats (˜500) in intron were generated by Robert Brown (Peters et al., 2015). All mice were maintained and bred at the animal facility of Universidad Andres Bello. The presence of the human SOD1transgene, the human TARDBP transgene and the human C9ORF72 transgene were validated by polymerase chain reaction as previously described. Transgenic males were crossed with WT females (B6SJL or C57BL/6J) from the corresponding background; these non-transgenic littermates (NTg) were used as internal controls for all experiments. The SOD1^G93A (mutSOD1) mice, but not the hSOD1WT (wtSOD1) mice, develop signs of neuromuscular deficits (tremor of the legs and loss of extension reflex of the hind paws) starting at 3 months of age and have an average lifespan of 133-147 days. […]
In this Example, polyP neutralizing molecules including a dendrimer (e.g., G3-PAMAM-NH2) and a cationic polyamine (e.g., spermidine) were evaluated as potential therapies for neurological disorders using a mouse model of ALS. […]

NCCCCNCCCN [spermidine]
survival of mutSOD1 mice (in words): prolonged survival
